The subject of the test is ATDC5 cells. The test is described as follows: Chondrogenesis activity assay in ATDC5 cells (collagen type II induction, immunofluorescence). The format is cell-based, mouse. The following applies: Mus musculus; for EC50: collagen type II induction in ATDC5 cells, concentration reaching 50% of maximum induction; for Emax: maximum percent induction of collagen type II relative to internal reference compound at 10 μM, ATDC5 cells. The protocol:
A) Chondrogenesis Activity Assay in ATDC5 Cells
The chondrogenic potential of the compounds of the invention was determined using clonal mouse chondrogenic ATDC5 cells (T. Atsumi et al., Cell Differ. Dev. 1990, 30, 109-116). ATDC5 cells are derived from mouse embryonic AT805 teratocarcinoma cells and are used frequently to study the multistep chondrogenic differentiation process from precursor cells into chondrocytes (C. Shukunami et al., Exp. Cell Res. 1998, 241, 1-11; H. Aklyami et al., J. Bone Miner. Res. 1996, 11, 22-28; H. Akiyami et al., Biochem. Biophys. Res. Commun. 1997, 235, 142-147; C. Shukunami et al., J. Cell Biol. 1996, 133, 457-468; C. Shukunami et al., J. Bone Miner. Res. 1997, 12, 1174-1188). Undifferentiated ATDC5 cells grow in vitro until confluence, showing a fibroblast-like morphology. In the presence of insulin, cells undergo transient condensation and form numerous nodular structures (cartilage nodules). The cartilagenous nature of these nodules was shown by Alcian Blue staining as evidence of the production of proteoglycan (aggrecan) and collagen type II expression (by expression analysis), both molecular markers of chondrocytes (C. Shukunami et al., J. Cell Biol. 1996, 133, 457-468).
Chondrogenic differentiation of ATDC5 cells into chondrocytes by the compounds of the invention was determined by measuring the induction of type II collagen protein as a marker of chondrocytes, a structural component of the extracellular matrix which constitutes more than 80% of cartilage mass (D. R. Eyre, Clin. Orthop. Relat. Res. 2004, 427 Suppl, S118-S122). ATDC5 cells were obtained from RIKEN and cultured as monolayer in basal culture medium (Dulbecco's Modified Eagle Medium/Nutrient Mixture F-12 (DMEM/F12, Invitrogen, #31331-093) supplemented with 10 μg/ml Transferrin (Roche, #10652 202001), 3×10E−8 M sodium seienite (Sigma, #S-5261) and 5% Fetal Calf Serum (FCS Gold, PAA, #A15-251)), at 37° C., and 5% CO2 in plastic flasks of 75 cm^2 or 300 cm^2 subconfluently for propagation. ATDC5 cells were harvested and resuspended in differentiation culture medium that consisted of basal culture medium complemented with 10 μg/ml insulin (Sigma, #19278), to initiate chondrogenic differentiation. For studying the effect of test compounds, the ATDC5 cells were plated in 96-well plates (3.0×10E4 cells per well in 200 μl of differentiation culture medium). Test compounds dissolved in DMSO were added to yield increasing compound concentrations, typically from 40 nM to 10 μM, and a final DMSO concentration of 0.1%. On each 96-well plate, control wells containing no test compound but the same concentration of DMSO, i.e. untreated cells, were included and used as reference for the determination of the effect of the test compounds on the cells, and wells containing an internal reference compound at a concentration of 10 μM were included and used as positive control and for standardizing the results. Cells in the wells were incubated for 4 days at 37° C., and 5% CO2, followed by quantification of intracellular collagen type II.
Quantification of collagen type II in the ATDC5-cells was done by immunofluorescence staining of collagen type II, and fluorescence intensity was measured using a cellular high content imaging system (ImageXpress, Molecular Device). For immunofluorescence staining of intracellular collagen, medium was removed after compound incubation and cells were fixed with 200 μl/well methanol/water (95%/5%). Cells were permeabilized in 200 μl/well phosphate-buffered saline (PBS) containing 0.2% Triton X100 for 15 min and, after removal of the solution, blocked for 30 min with 200 μl/well PBS/0.2% Triton X100 containing 1% bovine serum albumin (BSA) to avoid unspecific binding. After the blocking step, the solution was removed and collagen type II staining solution was added. […]

Compound `FC(F)(F)Cn1c2cnccc2c2cc(Cl)cc(-c3cnc4[nH]ccc4c3)c21` [Example 71, 6-Chloro-8-(1H-pyrrolo[2,3-b]pyridin-5-yl)-9-(2,2,2-trifluoro-ethyl)-9H-pyrido[3,4-b]indole] returned a half-maximal effective concentration (EC50) of 1500 nM and an Emax of under 20%. The corresponding values for `COc1ccc(-c2cc(Cl)cc3c2[nH]c2cnccc23)cn1` [Example 72, 6-Chloro-8-(6-methoxy-pyridin-3-yl)-9H-pyrido[3,4-b]indole] are 5800 nM and 20 to 50%. The matching figures for `Clc1cc(-c2ccc(Cl)nc2)c2[nH]c3cnccc3c2c1` [Example 73, 6-Chloro-8-(6-chloro-pyridin-3-yl)-9H-pyrido[3,4-b]indole]: 440 nM and 20 to 50%. The corresponding values for `Clc1cc(-c2ccc(Cl)nc2Cl)c2[nH]c3cnccc3c2c1` [Example 74, 6-Chloro-8-(2,6-dichloro-pyridin-3-yl)-9H-pyrido[3,4-b]indole] are 920 nM and 20 to 50%.

Regarding `FC(F)(F)Cn1c2cnccc2c2cc(Cl)cc(-c3csc(Cl)c3)c21` [Example 76, 6-Chloro-8-(5-chloro-thiophen-3-yl)-9-(2,2,2-trifluoro-ethyl)-9H-pyrido[3,4-b]indole], the Emax is 20 to 50%. For the compound `Cc1nccc2c1[nH]c1c(-c3ccc(Cl)nc3)cc(Cl)cc12` [Example 77, 6-Chloro-8-(6-chloro-pyridin-3-yl)-1-methyl-9H-pyrido[3,4-b]indole], the 50% effective concentration (EC50) is 580 nM and the Emax was over 80%. The corresponding values for `CCn1c2c(-c3cncc(Cl)c3)cc(Cl)cc2c2ccnc(C)c21` [Example 78, 6-Chloro-8-(5-chloro-pyridin-3-yl)-9-ethyl-1-methyl-9H-pyrido[3,4-b]indole] are over 10000 nM and under 20%.

`CCn1c2c(-c3ccc(Cl)nc3)cc(Cl)cc2c2ccnc(C)c21` [Example 79, 6-Chloro-8-(6-chloro-pyridin-3-yl)-9-ethyl-1-methyl-9H-pyrido[3,4-b]indole] showed an EC50 of 3900 nM and a maximal response (Emax) of over 80%. `FC(F)(F)Cn1c2cnccc2c2cc(Cl)cc(-c3ccc(NC4CCCCC4)nc3)c21` [Example 80, (5-[6-Chloro-9-(2,2,2-trifluoro-ethyl)-9H-pyrido[3,4-b]indol-8-yl]-pyridin-2-yl)-cyclohexyl-amine]: a half-maximal response (EC50) required 1200 nM and the Emax lay within 20 to 50%. The corresponding values for `FC(F)(F)Cn1c2cnccc2c2cc(Cl)cc(-c3ccc(N4CCCC4)nc3)c21` [Example 81, 6-Chloro-8-(6-pyrrolidin-1-yl-pyridin-3-yl)-9-(2,2,2-trifluoro-ethyl)-9H-pyrido[3,4-b]indole] are 4100 nM and over 80%. As to `Fc1cncc(-c2cc(Cl)cc3c4ccncc4n(CC(F)(F)F)c23)c1` [Example 82, 6-Chloro-8-(5-fluoro-pyridin-3-yl)-9-(2,2,2-trifluoro-ethyl)-9H-pyrido[3,4-b]indole], the 50% effective concentration (EC50) came out at 2000 nM and the maximal response (Emax) is 20 to 50%. The matching figures for `Cc1nc(Cl)ccc1-c1cc(Cl)cc2c3ccncc3n(CC(F)(F)F)c12` [Example 83, 6-Chloro-8-(6-chloro-2-methyl-pyridin-3-yl)-9-(2,2,2-trifluoro-ethyl)-9H-pyrido[3,4-b]indole]: 2100 nM and 20 to 50%.

Regarding `CN(C)c1ccc(-c2cc(Cl)cc3c4ccncc4n(CC(F)(F)F)c23)cn1` [Example 84, (5-[6-Chloro-9-(2,2,2-trifluoro-ethyl)-9H-pyrido[3,4-b]indol-8-yl]-pyridin-2-yl)-dimethyl-amine], the EC50 was over 10000 nM and the maximal effect (Emax) was in the range of 20 to 50%. The corresponding values for `COc1ncc(-c2cc(Cl)cc3c4ccncc4n(CC(F)(F)F)c23)cc1F` [Example 85, 6-Chloro-8-(5-fluoro-6-methoxy-pyridin-3-yl)-9-(2,2,2-trifluoro-ethyl)-9H-pyrido[3,4-b]indole] are over 10000 nM and 20 to 50%.

For `FC(F)(F)Cn1c2cnccc2c2cc(Cl)cc(-c3ccc(N4CCOCC4)nc3)c21` [Example 86, 6-Chloro-8-(6-morpholin-4-yl-pyridin-3-yl)-9-(2,2,2-trifluoro-ethyl)-9H-pyrido[3,4-b]indole], the EC50 turned out to be 750 nM and the Emax is over 80%. For `CN1CCN(c2ccc(-c3cc(Cl)cc4c5ccncc5n(CC(F)(F)F)c34)cn2)CC1` [Example 87, 6-Chloro-8-[6-(4-methyl-piperazin-1-yl)-pyridin-3-yl]-9-(2,2,2-trifluoro-ethyl)-9H-pyrido[3,4-b]indole], the EC50 is 1500 nM and the maximal response (Emax) lay in the range of 50 to 80%.

Take `FC(F)(F)Cn1c2cnccc2c2cc(Cl)cc(-c3ccc(C(F)(F)F)nc3)c21` [Example 88, 6-Chloro-9-(2,2,2-trifluoro-ethyl)-8-(6-trifluoromethyl-pyridin-3-yl)-9H-pyrido[3,4-b]indole]: the concentration for a half-maximal effect (EC50) is 1700 nM and the Emax is under 20%.

Consider `FC(F)(F)Cn1c2cnccc2c2cc(Cl)cc(-c3ccc(N4CCCCC4)nc3)c21` [Example 89, 6-Chloro-8-(3,4,5,6-tetrahydro-2H-[1,2′]bipyridinyl-5′-yl)-9-(2,2,2-trifluoro-ethyl)-9H-pyrido[3,4-b]indole], for which the EC50 is over 10000 nM and the Emax is over 80%.

`CC#CCn1c2cnccc2c2cc(Cl)cc(-c3ccc(Cl)nc3)c21` [Example 90, 9-But-2-ynyl-6-chloro-8-(6-chloro-pyridin-3-yl)-9H-pyrido[3,4-b]indole]: the EC50 is over 10000 nM and the maximal effect (Emax) was under 20%. In turn, `CCn1c2c(-c3ccc(OC)nc3)cc(Cl)cc2c2ccnc(C)c21` [Example 91, 6-Chloro-9-ethyl-8-(6-methoxy-pyridin-3-yl)-1-methyl-9H-pyrido[3,4-b]indole] displayed a concentration for a half-maximal effect (EC50) of 1500 nM and a maximal effect (Emax) of over 80%. Regarding `CCn1c2c(-c3cnc4[nH]ccc4c3)cc(Cl)cc2c2ccnc(C)c21` [Example 92, 6-Chloro-9-ethyl-1-methyl-8-(1H-pyrrolo[2,3-b]pyridin-5-yl)-9H-pyrido[3,4-b]indole], the EC50 stood at 2500 nM and the Emax is over 80%. The matching figures for `CCn1c2c(-c3ccc(N4CCOCC4)nc3)cc(Cl)cc2c2ccnc(C)c21` [Example 93, 6-Chloro-9-ethyl-1-methyl-8-(6-morpholin-4-yl-pyridin-3-yl)-9H-pyrido[3,4-b]indole]: 2200 nM and over 80%. The corresponding values for `COc1ccc(-c2cc(Cl)cc3c2[nH]c2c(C)nccc23)cn1` [Example 94, 6-Chloro-8-(6-methoxy-pyridin-3-yl)-1-methyl-9H-pyrido[3,4-b]indole] are 750 nM and over 80%. The matching figures for `Cc1ccc(-c2cc(Cl)cc3c2[nH]c2c(C)nccc23)cn1` [Example 95, 6-Chloro-1-methyl-8-(6-methyl-pyridin-3-yl)-9H-pyrido[3,4-b]indole]: 680 nM and 50 to 80%. With `Cc1nccc2c1[nH]c1c(-c3ccc(N4CCOCC4)nc3)cc(Cl)cc12` [Example 96, 6-Chloro-1-methyl-8-(6-morpholin-4-yl-pyridin-3-yl)-9H-pyrido[3,4-b]indole], the EC50 was 850 nM and the Emax was in the range of 50 to 80%.

By EC50 is commonly meant the concentration at which the effect is half-maximal. A high value points to weaker potency. For orientation: Emax means the size of the effect at its maximum, as opposed to the concentration needed.
